What was measured:
[1] = system: RSV-A; assay: RSV-A cytopathic effect (CPE) reduction assay in HEp-2 cells, MTS read-out; type: cell-based, human respiratory syncytial virus, RSV-A strain Long
[2] = system: VEEV (TC-83); assay: microbe, parasite or virus in culture; type: cell-based; details: Venezuelan equine encephalitis virus, U-87 MG, 18 h, read-out: VEEV EC50
[3] = in vitro; details: human
[4] = in vitro; details: human; remark: listed apart in the source
[5] = system: RSV-A; assay: Anti-RSV-A activity in A549 cells, viral RNA in supernatant by RT-qPCR; type: cell-based, RSV-A strain Long; details: human respiratory syncytial virus, A549, 120 h, read-out: RSV-A EC50 (A549, viral RNA levels)
[6] = target: AAK1 (Homo sapiens, UniProt Q2M2I8); assay: LanthaScreen Eu Kinase Binding Assay for AAK1
[7] = system: SARS-CoV-2; assay: microbe, parasite or virus in culture; type: cell-based, SARS-CoV-2 BetaCov/Belgium/GHB-03021/2020; details: Severe acute respiratory syndrome coronavirus 2, 96 h, read-out: SARS-CoV-2 EC50
[8] = in vitro; details: African green monkey
[9] = human respiratory syncytial virus, HEp-2, 96 h; read-out: RSV-A EC50
[10] = HEp-2 cells, inhibition of virus-induced cytopathogenicity by 50%, MOI 0.01, 4 days; read-out: RSV-A EC50

Chain of AAK1 (Q2M2I8 whole entry): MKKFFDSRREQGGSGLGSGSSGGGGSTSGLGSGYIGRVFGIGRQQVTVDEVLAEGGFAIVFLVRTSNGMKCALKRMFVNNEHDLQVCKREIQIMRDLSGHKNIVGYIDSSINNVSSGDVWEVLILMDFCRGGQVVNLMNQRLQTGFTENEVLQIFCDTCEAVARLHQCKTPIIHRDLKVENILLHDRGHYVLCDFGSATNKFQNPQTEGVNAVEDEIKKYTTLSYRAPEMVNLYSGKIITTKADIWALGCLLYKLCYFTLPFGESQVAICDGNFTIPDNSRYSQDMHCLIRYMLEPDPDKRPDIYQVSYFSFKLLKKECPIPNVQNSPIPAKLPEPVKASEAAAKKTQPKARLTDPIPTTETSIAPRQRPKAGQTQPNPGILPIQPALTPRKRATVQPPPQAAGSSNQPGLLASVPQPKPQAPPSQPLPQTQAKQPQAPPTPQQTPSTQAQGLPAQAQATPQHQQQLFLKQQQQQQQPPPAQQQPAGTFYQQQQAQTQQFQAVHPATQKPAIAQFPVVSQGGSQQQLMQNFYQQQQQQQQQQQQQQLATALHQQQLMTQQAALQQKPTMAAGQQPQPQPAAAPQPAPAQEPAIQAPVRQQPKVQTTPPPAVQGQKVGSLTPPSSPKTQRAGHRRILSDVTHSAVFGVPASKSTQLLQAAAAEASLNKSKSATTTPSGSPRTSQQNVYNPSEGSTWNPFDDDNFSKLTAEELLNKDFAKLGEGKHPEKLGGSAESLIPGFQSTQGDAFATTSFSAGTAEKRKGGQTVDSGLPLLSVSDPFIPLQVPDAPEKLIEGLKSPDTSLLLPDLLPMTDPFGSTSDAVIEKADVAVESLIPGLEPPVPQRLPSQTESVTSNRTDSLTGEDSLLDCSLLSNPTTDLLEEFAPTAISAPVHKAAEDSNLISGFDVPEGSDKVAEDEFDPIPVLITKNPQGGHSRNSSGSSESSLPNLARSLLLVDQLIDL

Molecule | EC50 [1, 9] [µM] | EC50 [2] [µM] | CC50 at 4 days [3] [µM] | CC50 [4] [µM] | also measured
COc1ccc(-c2cnc3[nH]cc(C#Cc4cccnc4)c3c2)cc1 [Compound 4a, 5-(4-Methoxyphenyl)-3-(pyridin-3-ylethynyl)-1H-pyrrolo[2,3-b]pyridine] | 0.048 ± 0.037 | 6.81 ± 1.87 | 0.24 ± 0.23 | > 10 | 
COc1cccc(-c2cnc3[nH]cc(C#Cc4cccnc4)c3c2)c1 [Compound 4b] | 0.67 ± 0.43 | > 10 | 6 ± 5.66 | > 10 | 
COc1ccccc1-c1cnc2[nH]cc(C#Cc3cccnc3)c2c1 [Compound 4c] | 0.69 ± 0.32 | 5.34 ± 1.87 | 6 ± 5.66 | > 10 | 
COc1cc(OC)cc(-c2cnc3[nH]cc(C#Cc4cccnc4)c3c2)c1 [Compound 4d] |  | > 10 | > 50 | > 10 | selectivity index (SI) ([1]; CC50 HEp-2 / EC50 RSV-A): 90; EC50 ([1]; human respiratory syncytial virus, HEp-2, 96 h, read-out: RSV-A EC50): 0.55 ± 0.41 µM; EC50 [5]: 0.05 µM; AAK1 affinity (in words) [6]: low nanomolar AAK1 affinity; IC50 [6]: 0.0062 µM
COc1cc(-c2cnc3[nH]cc(C#Cc4cccnc4)c3c2)cc(OC)c1OC [Compound 4e] | 0.71 ± 0.55 | 1.5 ± 0.17 | 1.2 ± 1.13 | > 10 | 
COCCOc1ccc(-c2cnc3[nH]cc(C#Cc4cccnc4)c3c2)cc1 [Compound 4f] | 30 ± 28.3 | > 10 | > 50 | > 10 | anti-RSV activity (in words) ([1]; HEp-2 cells): completely devoid of anti-RSV activity
COc1cc(-c2cnc3[nH]cc(C#Cc4cccnc4)c3c2)ccn1 [Compound 4g] | 2.71 ± 1.01 | > 10 | > 50 | > 10 | 
Clc1cccc(-c2cnc3[nH]cc(C#Cc4cccnc4)c3c2)c1 [Compound 4h] | 2.89 ± 2.24 | > 10 | > 50 | > 10 | 
Fc1ccc(-c2cnc3[nH]cc(C#Cc4cccnc4)c3c2)cc1 [Compound 4i] | 2.23 ± 1.32 | 9.05 ± 1.03 | > 50 | > 10 | 
C(#Cc1c[nH]c2ncc(-c3ccoc3)cc12)c1cccnc1 [Compound 4j] | 47.8 ± 3.07 | > 10 | > 50 | > 10 | anti-RSV activity (in words) ([1]; HEp-2 cells): completely devoid of anti-RSV activity
C(#Cc1c[nH]c2ncc(-c3ccsc3)cc12)c1cccnc1 [Compound 4k] | 4.83 ± 1.44 | > 10 | > 50 | > 10 | 
COc1cc(OC)cc(-c2cnc3[nH]cc(C#Cc4ccccn4)c3c2)c1 [Compound 5a] | 0.08 | > 10 | 0.24 ± 0.23 | > 10 | 
COc1cc(OC)cc(-c2cnc3[nH]cc(C#Cc4ccccc4)c3c2)c1 [Compound 5b] | 1.59 ± 0.59 | > 10 | 6 ± 4.35 | > 10 | 
COc1cc(OC)cc(-c2cnc3[nH]cc(C#Cc4ccc(F)cc4)c3c2)c1 [Compound 5c] | 0.36 ± 0.064 | 6.27 ± 0.93 | 1.66 ± 0.89 | > 10 | 
COc1cc(OC)cc(-c2cnc3[nH]cc(C#Cc4cccc(Cl)c4)c3c2)c1 [Compound 5d] | 16.3 | 6.13 ± 0.94 | > 50 | > 10 | loss of activity against RSV-A relative to compound 4d ([1]; HEp-2 cells): 30 fold
COc1cccc(C#Cc2c[nH]c3ncc(-c4cc(OC)cc(OC)c4)cc23)c1 [Compound 5e] | 2.75 ± 0.24 | 6.29 ± 2.71 | > 50 | > 10 | loss of activity against RSV-A relative to compound 4d ([1]; HEp-2 cells): 5 fold
COc1cc(OC)cc(-c2cnc3[nH]cc(C#Cc4ccsc4)c3c2)c1 [Compound 5f] | 0.31 ± 0.13 | 4.3 ± 0.47 | 1.84 ± 0.95 | > 10 | 
COc1cc(OC)cc(-c2cnc3c(c2)c(C#Cc2cccnc2)cn3C)c1 [Compound 7a] | 1.65 ± 0.5 | > 10 | 30 ± 28.3 | > 10 | AAK1 affinity (in words) [6]: no AAK1 affinity; IC50 [6]: > 10 µM
CCn1cc(C#Cc2cccnc2)c2cc(-c3cc(OC)cc(OC)c3)cnc21 [Compound 7b] | > 2 | 3.92 ± 1.15 | 2 | > 10 | 
COc1cc(OC)cc(-c2cnc3c(c2)c(C#Cc2cccnc2)cn3CC(C)C)c1 [Compound 7c] | > 10 | > 10 | 10.7 ± 0.98 | > 10 | 
COc1cc(OC)cc(-c2cnc3c(c2)c(C#Cc2cccnc2)cn3Cc2ccccc2)c1 [Compound 7d] | 4.88 ± 0.28 | > 10 | > 50 | > 10 | 

Molecule | EC50 [1, 9] [µM] | EC50 [2] [µM] | CC50 at 4 days [3] [µM] | CC50 [4] [µM] | also measured
O=C(c1cccc(-c2cnc3[nH]cc(C#Cc4cccnc4)c3c2)c1)N1CCCC1 [Compound 8L] | 1 ± 0.94 | > 10 | 5.71 ± 0.044 | > 10 | EC50 [7]: 0.96 ± 0.32 µM; CC50 [8]: 6.46 ± 1.75 µM
CNC(=O)c1ccc(-c2cnc3[nH]cc(C#Cc4cccnc4)c3c2)cc1 [Compound 8a] | 0.89 ± 0.4 | 2.72 ± 0.93 | 6 ± 5.66 | > 10 | 
O=C(NC1CC1)c1ccc(-c2cnc3[nH]cc(C#Cc4cccnc4)c3c2)cc1 [Compound 8d] | 4.63 ± 3.71 | > 10 | 50 | > 10 | 
CC(C)CNC(=O)c1cccc(-c2cnc3[nH]cc(C#Cc4cccnc4)c3c2)c1 [Compound 8g] | 0.66 ± 0.22 | 3.75 ± 1.08 | 3.38 ± 1.01 | > 10 | EC50 [7]: 0.76 ± 0.46 µM; CC50 [8]: > 85 µM
COCCNC(=O)c1cccc(-c2cnc3[nH]cc(C#Cc4cccnc4)c3c2)c1 [Compound 8h] | 0.72 ± 0.46 | 2.48 ± 1.27 | 17.3 ± 7.88 | > 10 | EC50 [7]: 2.13 ± 1.91 µM; CC50 [8]: > 100 µM
O=C(NCc1ccccc1)c1cccc(-c2cnc3[nH]cc(C#Cc4cccnc4)c3c2)c1 [Compound 8i] | 2.71 ± 2.88 | 1.29 ± 1.41 | > 50 | > 10 | 
CN(C)C(=O)c1cccc(-c2cnc3[nH]cc(C#Cc4cccnc4)c3c2)c1 [Compound 8j] | 3.65 ± 2.28 | 4.57 ± 4.87 | > 50 | > 10 | 
CCN(CC)C(=O)c1cccc(-c2cnc3[nH]cc(C#Cc4cccnc4)c3c2)c1 [Compound 8k] | 0.97 ± 0.18 | > 10 | 4.04 ± 0.14 | > 10 | EC50 [7]: 10.2 ± 0.14 µM; CC50 [8]: 88.5 ± 1.41 µM
O=C(c1cccc(-c2cnc3[nH]cc(C#Cc4cccnc4)c3c2)c1)N1CCOCC1 [Compound 8m] | 3.42 ± 4.4 | > 10 | 10.9 ± 0.69 | > 10 | 
O=C(NC1CC1)c1cccc(-c2cnc3[nH]cc(C#Cc4ccc(F)nc4)c3c2)c1 [Compound 9a] | 1.76 ± 0.91 | 6.54 ± 1.21 | > 50 | > 10 | loss in anti-RSV activity relative to compound 8f ([1]; HEp-2 cells): 10 fold
COc1cncc(C#Cc2c[nH]c3ncc(-c4cccc(C(=O)NC5CC5)c4)cc23)c1 [Compound 9b] | 0.24 ± 0.057 | 1.39 ± 0.2 | 22.2 ± 3.68 | 8.99 ± 1.6 | 
Cc1cncc(C#Cc2c[nH]c3ncc(-c4cccc(C(=O)NC5CC5)c4)cc23)c1 [Compound 9c] | 0.18 ± 0.085 | 1.8 ± 0.32 | > 50 | > 10 | EC50 [7]: 1.82 ± 0.83 µM; CC50 [8]: > 100 µM
O=C(NC1CC1)c1cccc(-c2cnc3[nH]cc(C#Cc4ccccc4)c3c2)c1 [Compound 9d] | 0.82 ± 0.22 | > 10 | > 50 | > 10 | 
O=C(NC1CC1)c1cccc(-c2cnc3[nH]cc(C#Cc4ccsc4)c3c2)c1 [Compound 9e] | 0.51 ± 0.16 | > 10 | > 50 | > 10 | 
O=C(NC1CC1)c1cccc(-c2cnc3[nH]cc(C#Cc4cccc(Cl)c4)c3c2)c1 [Compound 9f] | > 50 | 6.7 ± 2.79 | > 50 | > 10 | anti-RSV activity (in words) ([1]; HEp-2 cells): inactive
COc1cccc(C#Cc2c[nH]c3ncc(-c4cccc(C(=O)NC5CC5)c4)cc23)c1 [Compound 9g] | 0.1 ± 0.19 | 5.27 ± 1.01 | > 20 | > 10 | 
N#C[C@@]1(c2ccc3c(N)ncnn23)O[C@H](CO)[C@@H](O)[C@H]1O [GS-441524, reference compound] |  |  |  |  | EC50 [7]: 0.7 ± 0.07 µM
CN1CCN(C)/C(=N/c2ccc([N+](=O)[O-])cc2C(=O)Nc2ccccc2)C1 [ML-336, (E)-2-((1,4-Dimethylpiperazin-2-ylidene)amino)-5-nitro-N-phenylbenzamide, reference compound] |  | 0.04 ± 0.01 |  | > 10 | 
NC(=O)c1ncn([C@@H]2O[C@H](CO)[C@@H](O)[C@H]2O)n1 [Ribavirin, reference compound] | 3.11 ± 1.85 |  | > 50 |  | 
Cc1ccc(CCCO)c(NCc2ccc3nc(NCCCN4CCOCC4)n(Cc4nc(C)ccc4O)c3c2)c1 [TMC353121, reference compound] |  |  |  |  | EC50 [1, 10]: 0.0013 ± 0.0008 µM
dextran sulfate sodium salt [DS-10000, reference compound] |  |  |  |  | EC50 [1, 10]: 0.068 ± 0.045 µM

— PMC9643853, “Synthesis and evaluation of 3-alkynyl-5-aryl-7-aza-indoles as broad-spectrum antiviral agents” (Frontiers in Chemistry, 2022)
